The source of these data is US20100113371A9, “Derivatives Of Pentose Monosaccharides As Anti-Inflammatory Compounds” (RANBAXY LABORATORIES LIMITED INC., priority 2004, published 2010).

A value given as a limit tells only on which side of the number the result lay.

This experiment deals with LTB4 release from neutrophils. The experiment in a line: A23187 induced LTB4 release. Format: cell-based. The note with it: Neutrophil; neutrophils from healthy human donors, test drug 1 hour at 37° C., 0.3 μg/ml A23187 10 min, LTB4 ELISA; range over the group of compounds; read-out: IC50, percent inhibition of LTB4 release. The procedure: The compounds of the present invention are tested in one or more of the assays described herein. Standard assays are used to evaluate activity of compounds in present invention on inflammatory cells. Attenuation of agonist-induced release of lipid mediator of neutrophil chemotaxis, leukotriene B4 (LTB4), is used to evaluate inhibitory effect on neutrophils.
Venous blood was collected from healthy human donors using heparin as an anti-coagulant. Neutrophils were isolated from freshly drawn blood after dextran sedimentation and ficoll separation (Eur J. Biochem. 169, 175, 1987). 180 μl of the of neutrophil suspension (0.2×10^6 cells/ml) was taken and added 19 μL of Hank's Buffer salt solution along with 1 μL of the test drug (200 times concentrated) in a 24 well plate and incubated at 37° C. for 1 hour. 3 minutes before the end of test compound incubation, 0.25 mM Ca^++/Mg^++ were added. Then, 0.3 μg/ml A23187 (Sigma Chem, USA) was added and incubated for further 10 min at 37° C. The reaction was stopped by adding 80 μL of cold methanol and centrifuged to remove cell debris (J Pharmacol Exp Ther. 297:267, 2001). The samples were analysed for LTB4 release using LTB4 ELISA kits (Assay Design Inc., USA). The amount of LTB4 released was quantified and percent inhibition of LTB4 release was calculated with respect to the difference between the A23187 stimulated and negative control cells, to compute IC50 values.

On to `CCCCCCCCCCCCOCC12OC(CNC(=O)Cc3ccc(OC(F)(F)F)cc3)C(O)C1OC(C)(C)O2` [Compound 106, 1-O-Dodecyl-2,3-O-isopropylidene-6-deoxy-6-{[(4-trifluoromethoxyphenyl)acetyl]amino}-α-L-sorbofuranoside], for which the concentration for half-maximal inhibition (IC50) is no less than 1.3 µM.
Take `CCCCCCCCCCCCOCC12OC(CNC(=O)Cc3ccc(Cl)c(Cl)c3)C(O)C1OC(C)(C)O2` [Compound 94, 1-O-Dodecyl-2,3-O-isopropylidene-6-deoxy-6-{[(3,4-dichlorophenyl)acetyl]amino}-α-L-sorbofuranoside]: the IC50 is no less than 1.3 µM.
To `CCCCCCCCCCCCOCC12OC(CNC(=O)Cc3ccc(F)cc3)C(O)C1OC(C)(C)O2` [Compound 69, 1-O-Dodecyl-2,3-O-isopropylidene-6-deoxy-6-{[(4-fluorophenyl)acetyl}amino]-α-L-sorbofuranoside] belongs no less than 1.3 µM; to `CCCCCCCOCC12OC(C)C(C)(OC(=O)NS(=O)(=O)c3ccc(Cl)cc3)C1OC(C)(C)O2` [Compound 116, (4ξ)-1-O-Heptyl-2,3-O-isopropylidene-4-C-methyl-4-O-[{[(4-chlorophenyl)sulphonyl]amino}-carbonyl]-6-deoxy-α-L-erythro-hex-2-ulofuranoside], no less than 1.3 µM.
The figure for `CCCCCCCOCC12OC(C)C(C)(OC(=O)NS(=O)(=O)c3ccc(F)cc3)C1OC(C)(C)O2` [Compound 118, (4ξ)-1-O-Heptyl-2,3-O-isopropylidene-4-C-methyl-4-O-[{[(4-fluorophenyl)sulphonyl]amino}-carbonyl]-6-deoxy-α-L-erythro-hex-2-ulofuranoside] is no less than 1.3 µM; for `CCCCCCCOCC12OC(C)C(C)(OC(=O)NS(=O)(=O)c3ccccc3)C1OC(C)(C)O2` [Compound 117, (4ξ)-1-O-Heptyl-2,3-O-isopropylidene-4-C-methyl-4-O-[{[phenylsulphonyl]amino}carbonyl]-6-deoxy-α-L-erythro-hex-2-ulofuranoside] it is no less than 1.3 µM; for `CCCCCCCCCCCCOCC12OC(CNC(=O)c3ccncc3)C(O)C1OC(C)(C)O2` [Compound 78, 1-O-Dodecyl-2,3-O-isopropylidene-6-deoxy-6-{[(pyridin-4-yl)-carbonyl]-amino}-α-L-sorbofuranoside] it is no less than 1.3 µM.
